In US20220183294A1, “PESTICIDALLY ACTIVE AZOLE AMIDE COMPOUNDS” (SYNGENTA CROP PROTECTION AG, priority 2019, published 2022):

What was measured:
Format in all cases: in vivo
[1] = tested on: Plutella xylostella (Diamondback Moth); assay: Example B13: Plutella xylostella (Diamondback Moth), artificial diet, 96-well; conditions: 216 h, application rate 500 ppm, eggs/L1 larvae, 9 days after infestation
Description: Example B13: Plutella xylostella (Diamondback Moth)
96-well microtiter plates containing artificial diet were treated with aqueous test solutions, prepared from 10′000 ppm DMSO stock solutions, by a liquid handling robot. After drying, eggs (-30 per well) were infested onto a netted lid which was suspended above the diet. The eggs hatch and L1 larvae move down to the diet. The samples were assessed for mortality 9 days after infestation.
The following compounds gave an effect of at least 80% mortality at an application rate of 500 ppm: […]

[2] = tested on: Spodoptera littoralis (Egyptian cotton leaf worm); assay: Example B9: Spodoptera littoralis (Egyptian cotton leaf worm), sprayed cotton leaf discs; conditions: foliar, 72 h, application rate 200 ppm, L1 larvae, 3 days after infestation, read-out: control in at least one of the three categories (mortality, anti-feedant effect, or growth inhibition)
Description: Example B9: Spodoptera littoralis (Egyptian cotton leaf worm)
Cotton leaf discs were placed onto agar in 24-well microtiter plates and sprayed with aqueous test solutions prepared from 10′000 ppm DMSO stock solutions. After drying the leaf discs were infested with five L1 larvae. The samples were assessed for mortality, anti-feeding effect, and growth inhibition in comparison to untreated samples 3 days after infestation. Control of Spodoptera littoralis by a test sample is given when at least one of the categories mortality, anti-feedant effect, and growth inhibition is higher than the untreated sample.

[3] = tested on: Chilo suppressalis (Striped rice stemborer); assay: Example B4: Chilo suppressalis (Striped rice stemborer), artificial diet; conditions: 144 h, application rate 200 ppm, L2 larvae, 6 days after infestation, read-out: control in at least one of the three categories (mortality, anti-feedant effect, or growth inhibition)
Description: Example B4: Chilo suppressalis (Striped rice stemborer) 24-well microtiter plates with artificial diet were treated with aqueous test solutions prepared from 10′000 ppm DMSO stock solutions by pipetting. After drying, the plates were infested with L2 larvae (6-8 per well). The samples were assessed for mortality, anti-feeding effect, and growth inhibition in comparison to untreated samples 6 days after infestation. Control of Chilo suppressalis by a test sample is given when at least one of the categories mortality, anti-feedant effect, and growth inhibition is higher than the untreated sample.

[4] = tested on: Spodoptera littoralis (Egyptian cotton leaf worm); assay: Example B10: Spodoptera littoralis (Egyptian cotton leaf worm), uptake by lettuce roots from agar; conditions: 144 h, test rate 12.5 ppm, eggs, 6 days after infestation, read-out: control in at least one of the three categories (mortality, anti-feeding, or growth inhibition)
Text: Example B10: Spodoptera littoralis (Egyptian cotton leaf worm)
Test compounds were applied by pipette from 10′000 ppm DMSO stock solutions into 24-well plates and mixed with agar. Lettuce seeds were placed onto the agar and the multi well plate was closed by another plate which contained also agar. After 7 days the compound was absorbed by the roots and the lettuce grew into the lid plate. The lettuce leaves were then cut off into the lid plate. Spodoptera eggs were pipetted through a plastic stencil onto a humid gel blotting paper and the lid plate was closed with it. The samples were assessed for mortality, anti-feedant effect and growth inhibition in comparison to untreated samples 6 days after infestation.
The following compounds gave an effect of at least 80% control in at least one of the three categories (mortality, anti-feeding, or growth inhibition) at a test rate of 12.5 ppm: […]

[5] = tested on: Plutella xylostella (Diamond back moth); assay: Example B5: Plutella xylostella (Diamond back moth), artificial diet, 24-well; conditions: 192 h, application rate 200 ppm, eggs, 8 days after infestation, read-out: control in at least one of the two categories (mortality or growth inhibition)
Description: Example B5: Plutella xylostella (Diamond back moth)
24-well microtiter plates with artificial diet were treated with aqueous test solutions prepared from 10′000 ppm DMSO stock solutions by pipetting. After drying, Plutella eggs were pipetted through a plastic stencil onto a gel blotting paper and the plate was closed with it. The samples were assessed for mortality and growth inhibition in comparison to untreated samples 8 days after infestation.
(§1) The following compounds gave an effect of at least 80% control in at least one of the two categories (mortality or growth inhibition) at an application rate of 200 ppm: […]

[6] = tested on: Diabrotica balteata (Corn root worm); assay: Example B1: Diabrotica balteata (Corn root worm), sprayed maize sprouts; conditions: 96 h, application rate 200 ppm, L2 larvae, 4 days after infestation, read-out: control in at least one of the two categories (mortality or growth inhibition)
Description: Example B1: Diabrotica balteata (Corn root worm)
Maize sprouts placed onto an agar layer in 24-well microtiter plates were treated with aqueous test solutions prepared from 10′000 ppm DMSO stock solutions by spraying. After drying, the plates were infested with L2 larvae (6 to 10 per well). The samples were assessed for mortality and growth inhibition in comparison to untreated samples 4 days after infestation.
as §1

[7] = tested on: Frankliniella occidentalis (Western flower thrips); assay: Example B3: Frankliniella occidentalis (Western flower thrips): Feeding/contact activity; conditions: 168 h, application rate 200 ppm, population of mixed ages, 7 days after infestation
Description: Example B3: Frankliniella occidentalis (Western flower thrips):Feeding/contact activity
Sunflower leaf discs were placed on agar in 24-well microtiter plates and sprayed with aqueous test solutions prepared from […] stock solutions. After drying the leaf discs were infested with a Frankliniella population of mixed ages. The samples were assessed for mortality 7 days after infestation.

[8] = tested on: Myzus persicae (Green peach aphid); assay: Example B12: Myzus persicae (Green Peach Aphid), 96-well sucrose solution; conditions: 120 h, application rate 50 ppm, 5 days after infestation
Text: Example B12: Myzus persicae (Green Peach Aphid)
Test compounds prepared from 10′000 ppm DMSO stock solutions were applied by a liquid handling robot into 96-well microtiter plates and mixed with a sucrose solution. Parafilm was stretched over the 96-well microtiter plate and a plastic stencil with 96 holes was placed onto the plate. Aphids were sieved into the wells directly onto the Parafilm. The infested plates were closed with a gel blotting card and a second plastic stencil and then turned upside down. The samples were assessed for mortality 5 days after infestation.

[9] = tested on: Myzus persicae (Green peach aphid); assay: Example B8: Myzus persicae (Green peach aphid): Intrinsic activity; conditions: 120 h, test rate 12 ppm, 5 days after infestation
Text: Example B8: Myzus persicae (Green peach aphid): Intrinsic activity
Test compounds prepared from 10′000 ppm DMSO stock solutions were applied by pipette into 24-well microtiter plates and mixed with sucrose solution. The plates were closed with a stretched Parafilm. A plastic stencil with 24 holes was placed onto the plate and infested pea seedlings were placed directly on the Parafilm. The infested plate was closed with a gel blotting paper and another plastic stencil and then turned upside down. The samples were assessed for mortality 5 days after infestation.

C[C@H](NC(=O)c1cc(C(F)(F)F)nc(C2(C#N)CC2)c1)c1ncnn1-c1ccc(C#N)cn1 [P1, 2-(1-cyanocyclopropyl)-N-[(1S)-1-[2-(5-cyano-2-pyridyl)-1,2,4-triazol-3-yl]ethyl]-6-(trifluoromethyl)pyridine-4-carboxamide]
≥ 80%: mortality at 500 ppm [1] | percent control (mortality, anti-feedant effect or growth inhibition) at 200 ppm [2] | percent control (mortality, anti-feedant effect or growth inhibition) at 200 ppm [3] | percent control (mortality, anti-feeding or growth inhibition) at 12.5 ppm [4] | percent control (mortality or growth inhibition) at 200 ppm [5] | percent control (mortality or growth inhibition) at 200 ppm [6]

C[C@H](NC(=O)c1cc(C(F)(F)F)cc(S(=O)(=O)C(F)(F)F)c1)c1ncnn1-c1ccc(C#N)cn1 [P2, N-[(1S)-1-[2-(5-cyano-2-pyridyl)-1,2,4-triazol-3-yl]ethyl]-3-(trifluoromethyl)-5-(trifluoromethylsulfonyl) benzamide]
≥ 80%: mortality at 500 ppm [1] | percent control (mortality, anti-feedant effect or growth inhibition) at 200 ppm [2] | percent control (mortality, anti-feedant effect or growth inhibition) at 200 ppm [3] | percent control (mortality, anti-feeding or growth inhibition) at 12.5 ppm [4] | percent control (mortality or growth inhibition) at 200 ppm [5] | percent control (mortality or growth inhibition) at 200 ppm [6]

CC(NC(=O)c1cc(C(F)(F)F)cc(S(=O)(=O)C(F)(F)F)c1)c1ncnn1-c1ccc(C#N)cn1 (centres unmarked) [P5, N-[1-[2-(5-cyano-2-pyridyl)-1,2,4-triazol-3-yl]ethyl]-3-(trifluoromethyl)-5-(trifluoromethylsulfonyl)benzamide]
≥ 80%: mortality at 500 ppm [1] | percent control (mortality, anti-feedant effect or growth inhibition) at 200 ppm [2] | percent control (mortality, anti-feedant effect or growth inhibition) at 200 ppm [3] | percent control (mortality, anti-feeding or growth inhibition) at 12.5 ppm [4] | percent control (mortality or growth inhibition) at 200 ppm [5] | mortality at 200 ppm [7] | percent control (mortality or growth inhibition) at 200 ppm [6]

C[C@H](NC(=O)c1cc(C(F)(F)F)cc(C(F)(F)C2CC2)c1)c1ncnn1-c1ncc(OCC(F)F)cn1 [P7, 3-[cyclopropyl(difluoro)methyl]-N-[(1S)-1-[2-[5-(2,2-difluoroethoxy)pyrimidin-2-yl]-1,2,4-triazol-3-yl]ethyl]-5-(trifluoromethyl) benzamide]
≥ 80%: mortality at 500 ppm [1] | percent control (mortality, anti-feedant effect or growth inhibition) at 200 ppm [2] | percent control (mortality, anti-feedant effect or growth inhibition) at 200 ppm [3] | percent control (mortality or growth inhibition) at 200 ppm [5] | mortality at 50 ppm [8]

CC(NC(=O)c1cc(C2CC2)nc(C(F)(F)F)c1)c1ncnn1-c1ncc(OCC(F)F)cn1 (centres unmarked) [P22, 2-cyclopropyl-N-[1-[2-[5-(2,2-difluoroethoxy)pyrimidin-2-yl]-1,2,4-triazol-3-yl]ethyl]-6-(trifluoromethyl)pyridine-4-carboxamide]
≥ 80%: mortality at 12 ppm [9] | percent control (mortality, anti-feedant effect or growth inhibition) at 200 ppm [2] | percent control (mortality, anti-feedant effect or growth inhibition) at 200 ppm [3] | percent control (mortality or growth inhibition) at 200 ppm [5] | percent control (mortality or growth inhibition) at 200 ppm [6]
